Converted amounts (≈) assume the structure as drawn. The source made the active and inactive calls. The calls are words filed in the database; no cut-off is given here.
What was measured:
BJ = test: Cytotoxicity against human BJ cells by MTT assay; format: functional
Adenosine kinase [1] = biological target: T1, Adenosine kinase (Homo sapiens, UniProt P55263); test: Inhibition of human ADK expressed in Escherichia coli BL21(DE3) cells using [3H]adenosine by liquid scintillation counting method
Target sequence in this assay (P55263 whole entry): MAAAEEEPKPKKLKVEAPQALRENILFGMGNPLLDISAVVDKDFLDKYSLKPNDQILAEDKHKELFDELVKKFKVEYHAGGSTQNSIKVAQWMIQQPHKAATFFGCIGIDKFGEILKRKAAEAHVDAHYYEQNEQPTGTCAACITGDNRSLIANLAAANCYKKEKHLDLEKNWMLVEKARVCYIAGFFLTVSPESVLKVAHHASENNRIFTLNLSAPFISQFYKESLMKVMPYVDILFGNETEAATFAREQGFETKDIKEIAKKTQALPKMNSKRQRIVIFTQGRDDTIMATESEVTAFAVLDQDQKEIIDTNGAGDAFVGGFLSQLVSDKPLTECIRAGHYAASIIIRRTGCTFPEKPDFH

[2] = Inhibition of Mycobacterium tuberculosis ADK expressed in Escherichia coli BL21(DE3) cells using [3H]adenosine by liquid scintillation counting method
[3] = tested on: Mycobacterium tuberculosis; test: Antimycobacterial activity against Mycobacterium tuberculosis H37Rv My 331/88 assessed as microbial growth inhibition incubated for 14 days; format: functional; conditions: H37Rv My 331/88, 336 h
[4] = tested on: Mycobacterium tuberculosis; test: Activity of Mycobacterium tuberculosis ADK expressed in Escherichia coli BL21(DE3) cells assessed as compound phosphorylation by measuring conversion of compound to 5'-phosphate
MRC5 = test: Cytotoxicity against human MRC5 cells by MTT assay; format: functional
Adenosine kinase [5] = biological target: T1, Adenosine kinase; test: Activity of human ADK expressed in Escherichia coli BL21(DE3) cells assessed as compound phosphorylation by measuring conversion of compound to 5'-phosphate; design: concentration or dose not given beside the values
Target sequence in this assay (P55263 2-362 limits assumed): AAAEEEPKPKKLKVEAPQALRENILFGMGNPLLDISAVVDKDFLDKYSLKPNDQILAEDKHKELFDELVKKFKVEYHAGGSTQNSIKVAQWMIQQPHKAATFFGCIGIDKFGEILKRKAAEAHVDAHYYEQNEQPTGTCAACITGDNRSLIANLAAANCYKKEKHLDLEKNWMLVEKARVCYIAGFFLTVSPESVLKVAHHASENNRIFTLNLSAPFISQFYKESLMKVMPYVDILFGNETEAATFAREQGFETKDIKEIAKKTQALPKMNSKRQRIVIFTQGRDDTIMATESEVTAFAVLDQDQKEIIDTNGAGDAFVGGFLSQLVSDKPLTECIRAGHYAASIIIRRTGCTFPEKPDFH

[6] = tested on: Mycobacterium tuberculosis; test: Binding affinity to Mycobacterium tuberculosis ADK expressed in Escherichia coli BL21(DE3) cells assessed as relative STD enhancements of signal from H-8 at 500 uM by 1H STD NMR spectroscopy
Adenosine kinase [7] = biological target: T1, Adenosine kinase; test: Binding affinity to human ADK expressed in Escherichia coli BL21(DE3) cells assessed as relative STD enhancements of signal from H-1' at 500 uM by 1H STD NMR spectroscopy
Target sequence in this assay (P55263 2-362 limits assumed): as above

[8] = tested on: Mycobacterium tuberculosis; test: Binding affinity to Mycobacterium tuberculosis ADK expressed in Escherichia coli BL21(DE3) cells assessed as relative STD enhancements of signal from H-1' at 500 uM by 1H STD NMR spectroscopy
Adenosine kinase [9] = biological target: T1, Adenosine kinase; test: Binding affinity to human ADK expressed in Escherichia coli BL21(DE3) cells assessed as relative STD enhancements of signal from H-8 at 500 uM by 1H STD NMR spectroscopy
Target sequence in this assay (P55263 2-362 limits assumed): as above

[10] = tested on: Mycobacterium tuberculosis; test: Binding affinity to Mycobacterium tuberculosis ADK expressed in Escherichia coli BL21(DE3) cells assessed as relative STD enhancements of signal from H-2 at 500 uM by 1H STD NMR spectroscopy
Adenosine kinase [11] = biological target: T1, Adenosine kinase; test: Binding affinity to human ADK expressed in Escherichia coli BL21(DE3) cells assessed as relative STD enhancements of signal from H-2 at 500 uM by 1H STD NMR spectroscopy
Target sequence in this assay (P55263 2-362 limits assumed): as above

Row | SMILES | CC50 (BJ) [µM] | IC50 (Adenosine kinase [1]) [µM] | IC50 [2] [µM] | MIC [3] [µM] | Activity [4] | CC50 (MRC5) [µM] | Activity (Adenosine kinase [5]) [%] | Activity [6] [%] | Activity (Adenosine kinase [7]) [%] | Activity [8] [%] | Activity (Adenosine kinase [9]) [%] | Activity [10] [%] | Activity (Adenosine kinase [11]) [%]
1 | COc1cc(-c2cn([C@@H]3O[C@H](CO)[C@@H](O)[C@H]3O)c3ncnc(N)c23)cc(OC)c1OC | > 100 | > 10 | > 10 | 8 (≈ 3.46 µg/mL) | inactive | > 100 | – | – | – | – | – | – | –
2 | CC(C)Oc1ccc(-c2cn([C@@H]3O[C@H](CO)[C@@H](O)[C@H]3O)c3ncnc(N)c23)cc1 | 59.9 | > 10 | 13.1 | 32 (≈ 12.8 µg/mL) | inactive | 50.2 | – | – | – | – | – | – | –
3 | COc1ccc(-c2cn([C@@H]3O[C@H](CO)[C@@H](O)[C@H]3O)c3ncnc(N)c23)cc1 | 21.9 | > 5 | > 10 | 16 (≈ 5.96 µg/mL) | inactive | 61.4 | – | – | – | – | – | – | –
4 | Nc1ncnc2c1c(-c1cc3ccccc3c3ccccc13)cn2[C@@H]1O[C@H](CO)[C@@H](O)[C@H]1O | > 100 | > 10 | > 10 | 32 (≈ 14.2 µg/mL) | inactive | 66 | – | – | – | – | – | – | –
5 | Nc1ncnc2c1c(-c1ccoc1)cn2[C@@H]1O[C@H](CO)[C@@H](O)[C@H]1O | 91.5 | – | > 10 | 16 (≈ 5.32 µg/mL) | inactive | 67.9 | 9 | – | – | – | – | – | –
6 | Nc1ncnc2c1c(-c1ncc[nH]1)cn2[C@@H]1O[C@H](CO)[C@@H](O)[C@H]1O | 1.48 | > 20 | > 3 | > 250 | inactive | 0.15 | 19 | – | – | – | – | – | –
7 | Nc1ncnc2c1c(-c1cccc3c1oc1ccccc13)cn2[C@@H]1O[C@H](CO)[C@@H](O)[C@H]1O | > 100 | > 10 | 0.6 | 4 (≈ 1.73 µg/mL) | inactive | 100 | – | – | – | – | – | – | –
8 | Nc1ncnc2c1c(-c1ccc(-c3ccc4ccccc4c3)cc1)cn2[C@@H]1O[C@H](CO)[C@@H](O)[C@H]1O | 0.12 | > 20 | > 10 | 62.5 (≈ 29.3 µg/mL) | inactive | 64.2 | – | – | – | – | – | – | –
9 | Nc1ncnc2c1c(-c1ccc3ccccc3c1)cn2[C@@H]1O[C@H](CO)[C@@H](O)[C@H]1O | 13.9 | – | 5.33 | 2 (≈ 0.785 µg/mL) | inactive | 13.6 | – | – | – | – | – | – | –
10 | NNC(=O)c1ccncc1 [ISONIAZID] | – | – | – | 0.5 (≈ 0.0686 µg/mL) | – | – | – | – | – | – | – | – | –
11 | Nc1ncnc2c1c(-c1cccc3ccccc13)cn2[C@@H]1O[C@H](CO)[C@@H](O)[C@H]1O | 90.6 | – | > 10 | 32 (≈ 12.6 µg/mL) | inactive | 94.4 | – | – | – | – | – | – | –
12 | Nc1ncnc2c1c(-c1ccc(C(F)(F)F)cc1)cn2[C@@H]1O[C@H](CO)[C@@H](O)[C@H]1O | 62 | > 10 | > 10 | 4 (≈ 1.64 µg/mL) | inactive | 78.8 | – | – | – | – | – | – | –
13 | Cc1ccc(-c2cn([C@@H]3O[C@H](CO)[C@@H](O)[C@H]3O)c3ncnc(N)c23)cc1C | 57.3 | > 20 | 4.9 | 8 (≈ 2.96 µg/mL) | inactive | 37.9 | – | – | – | – | – | – | –
14 | Nc1ncnc2c1c(-c1cn[nH]c1)cn2[C@@H]1O[C@H](CO)[C@@H](O)[C@H]1O | 48.9 | > 10 | > 5 | 125 (≈ 41.5 µg/mL) | inactive | 71.2 | 9 | – | – | – | – | – | –
15 | CSc1ccc(-c2cn([C@@H]3O[C@H](CO)[C@@H](O)[C@H]3O)c3ncnc(N)c23)cc1 | 18 | – | > 10 | 4 (≈ 1.55 µg/mL) | inactive | 45.6 | – | – | – | – | – | – | –
16 | Nc1ncnc2c1c(-c1c[nH]nn1)cn2[C@@H]1O[C@H](CO)[C@@H](O)[C@H]1O | 0.08 | > 20 | > 10 | > 250 | inactive | 0.1 | 37 | – | – | – | – | – | –
17 | CC(C)c1ccc(-c2cn([C@@H]3O[C@H](CO)[C@@H](O)[C@H]3O)c3ncnc(N)c23)cc1 | 63.9 | > 20 | > 10 | 16 (≈ 6.15 µg/mL) | inactive | 52.9 | – | – | – | – | – | – | –

Row | SMILES | CC50 (BJ) [µM] | IC50 (Adenosine kinase [1]) [µM] | IC50 [2] [µM] | MIC [3] [µM] | Activity [4] | CC50 (MRC5) [µM] | Activity (Adenosine kinase [5]) [%] | Activity [6] [%] | Activity (Adenosine kinase [7]) [%] | Activity [8] [%] | Activity (Adenosine kinase [9]) [%] | Activity [10] [%] | Activity (Adenosine kinase [11]) [%]
18 | Nc1ncnc2c1c(-c1ccsc1)cn2[C@@H]1O[C@H](CO)[C@@H](O)[C@H]1O | 12.9 | – | 6.6 | 8 (≈ 2.79 µg/mL) | inactive | 42.5 | 2 | – | – | – | – | – | –
19 | Nc1ncnc2c1c(-c1c[nH]cn1)cn2[C@@H]1O[C@H](CO)[C@@H](O)[C@H]1O | 0.12 | 13 | > 10 | > 250 | inactive | 0.33 | 47 | – | – | – | – | – | –
20 | CC(C)(C)c1ccc(-c2cn([C@@H]3O[C@H](CO)[C@@H](O)[C@H]3O)c3ncnc(N)c23)cc1 | > 100 | > 20 | > 10 | 62.5 (≈ 24.9 µg/mL) | inactive | 96.3 | – | – | – | – | – | – | –
21 | Nc1ncnc2c1c(-c1ccccc1)cn2[C@@H]1O[C@H](CO)[C@@H](O)[C@H]1O | 50.9 | – | > 10 | 8 (≈ 2.74 µg/mL) | inactive | 21 | – | – | – | – | – | – | –
22 | Nc1ncnc2c1c(-c1ccc[nH]1)cn2[C@@H]1O[C@H](CO)[C@@H](O)[C@H]1O | > 100 | > 20 | 4.4 | 62.5 (≈ 20.7 µg/mL) | inactive | 99.6 | 6 | – | – | – | – | – | –
23 | Nc1ncnc2c1ncn2[C@@H]1O[C@H](CO)[C@@H](O)[C@H]1O | – | – | – | – | – | – | – | 58 | 100 | 100 | 20 | 44 | 8
24 | Nc1ncnc2c1ncn2[C@@H]1O[C@H](COP(=O)(O)OP(=O)(O)OP(=O)(O)O)[C@@H](O)[C@H]1O | – | – | – | – | – | – | – | 24 | 100 | 100 | < 1 | 57 | < 1
25 | Nc1ncnc2c1c(-c1cccs1)cn2[C@@H]1O[C@H](CO)[C@@H](O)[C@H]1O | 65.4 | – | > 10 | 8 (≈ 2.79 µg/mL) | inactive | 39.4 | 2 | – | – | – | – | – | –
26 | Nc1ncnc2c1c(-c1cc[nH]n1)cn2[C@@H]1O[C@H](CO)[C@@H](O)[C@H]1O | 9.51 | – | > 10 | > 250 | inactive | 0.18 | 7 | – | – | – | – | – | –
27 | Nc1ncnc2c1c(-c1ccc(COc3cccc4ccccc34)cc1)cn2[C@@H]1O[C@H](CO)[C@@H](O)[C@H]1O | > 100 | > 20 | > 10 | 16 (≈ 7.98 µg/mL) | inactive | 92.1 | – | – | – | – | – | – | –
28 | Nc1ncnc2c1c(-c1cc3ccccc3o1)cn2[C@@H]1O[C@H](CO)[C@@H](O)[C@H]1O | 21.2 | – | 1.8 | 16 (≈ 6.12 µg/mL) | inactive | 35.1 | – | – | – | – | – | – | –
29 | Nc1ncnc2c1c(-c1ccc(-c3ccccc3)cc1)cn2[C@@H]1O[C@H](CO)[C@@H](O)[C@H]1O | 40.6 | > 20 | 7.67 | 4 (≈ 1.67 µg/mL) | inactive | 93.7 | – | – | – | – | – | – | –
30 | Nc1ncnc2c1c(-c1ccc3c4c(cccc14)CC3)cn2[C@@H]1O[C@H](CO)[C@@H](O)[C@H]1O | 23.1 | > 10 | > 10 | 16 (≈ 6.7 µg/mL) | inactive | > 100 | – | – | – | – | – | – | –
31 | Nc1ncnc2c1c(-c1cccc3c1Sc1ccccc1S3)cn2[C@@H]1O[C@H](CO)[C@@H](O)[C@H]1O | > 100 | > 10 | 2.06 | 62.5 (≈ 30 µg/mL) | inactive | 68.5 | – | – | – | – | – | – | –
32 | Nc1ncnc2c1c(/C=C/c1ccccc1)cn2[C@@H]1O[C@H](CO)[C@@H](O)[C@H]1O | 19.6 | > 10 | 0.9 | 8 (≈ 2.95 µg/mL) | inactive | 48.2 | – | – | – | – | – | – | –
33 | Nc1ncnc2c1c(-c1cc[nH]c1)cn2[C@@H]1O[C@H](CO)[C@@H](O)[C@H]1O | 10.1 | 4.5 | > 10 | 62.5 (≈ 20.7 µg/mL) | inactive | 5.05 | 20 | – | – | – | – | – | –
34 | Nc1ncnc2c1c(-c1ccc3c(c1)OCO3)cn2[C@@H]1O[C@H](CO)[C@@H](O)[C@H]1O | 15.5 | > 10 | > 10 | 8 (≈ 3.09 µg/mL) | inactive | 46 | – | – | – | – | – | – | –

— ChEMBL document CHEMBL3352218, “Structural basis for inhibition of mycobacterial and human adenosine kinase by 7-substituted 7-(Het)aryl-7-deazaadenine ribonucleosides” (J Med Chem, 2014)
